# Assay results: PMC5482845 (Scientific Reports, 2017)
# Read-outs that look alike come from different tables or passages of the source.
# Columns and labels:
# atherosclerotic lesions = tested on: atherosclerotic lesions; parameters: method as in PMID 17803269, PMID 14718664; conditions: orally active; apolipoprotein E knockout mice and low density lipoprotein receptor knockout mice; cited from earlier work
# SOAT2 [1] = molecular target: T1, SOAT2 (Homo sapiens, UniProt O75908); experiment: Enzyme-based SOAT assay, microsomes from hSOAT2-CHO cells (Potter-type homogenizer); assay type: biochemical
# T1 construct: expressed in transfected cells; host or cells: CHO cells (AC29, SOAT-deficient)
# T1 sequence (O75908 1-522): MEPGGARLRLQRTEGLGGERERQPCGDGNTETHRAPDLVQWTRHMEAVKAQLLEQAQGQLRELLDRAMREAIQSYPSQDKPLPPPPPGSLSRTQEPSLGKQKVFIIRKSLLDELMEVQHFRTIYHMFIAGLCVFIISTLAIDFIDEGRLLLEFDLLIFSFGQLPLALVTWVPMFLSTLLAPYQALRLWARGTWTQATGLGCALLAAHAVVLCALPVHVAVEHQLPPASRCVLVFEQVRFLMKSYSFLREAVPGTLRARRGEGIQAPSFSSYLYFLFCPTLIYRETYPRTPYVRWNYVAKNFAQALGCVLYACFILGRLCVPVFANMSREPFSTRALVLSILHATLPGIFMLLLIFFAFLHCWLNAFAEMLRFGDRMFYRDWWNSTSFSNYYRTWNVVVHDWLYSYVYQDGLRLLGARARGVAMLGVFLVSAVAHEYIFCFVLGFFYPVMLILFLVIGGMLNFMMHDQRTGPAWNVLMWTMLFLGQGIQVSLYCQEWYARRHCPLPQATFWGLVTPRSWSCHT
# Experimental: An enzyme source from SOAT1-/SOAT2-CHO cells using a Potter-type homogenizer was prepared using our established method[18]. Briefly, SOAT1 or SOAT2-CHO cells (2.0 × 10^8 cells) were homogenized in 5 ml cold buffered sucrose solution (pH 7.2, 100 mM sucrose, 50 mM KCl, 40 mM KH2PO4, and 30 mM EDTA, hereafter referred to as Buffer A) including protease inhibitors (Complete mini (Roche)) in the Potter-type homogenizer. The microsomal fraction was pelleted by centrifugation at 100,000 × g at 4.0 °C for 1.0 h (TLA110, Beckman Coulter), resuspended in the same buffer at a concentration of 5.0 mg protein/ml, and stored at −80 °C until used.
# SOAT1 and SOAT2 activities were measured using fractionation prepared as described above as an enzyme source[18]. Briefly, an assay mixture was made containing 500 µg BSA (fatty acid free) and [1-^14C]oleoyl-CoA (20 µM, 3.7 kBq). A test sample (5.0 µl in methanol solution) and microsomes or the ER fractionation of SOAT1- and SOAT2-CHO cells in a total volume of 200 µl Buffer A was incubated at 37 °C. The SOAT reaction was started by adding [1-^14C]oleoyl-CoA. After a 5-min incubation, the reaction was stopped by adding chloroform: methanol (2:1, 1.2 ml). […] After the organic solvent was removed by evaporation, lipids were separated on a TLC plate and the radioactivity of [^14C]CE was measured by our established method[18].
# SOAT2 [2] = molecular target: T2, SOAT2 (Chlorocebus aethiops, UniProt O77759); conditions: enzyme-based assay; African green monkey; cited from earlier work
# T2 construct: expressed in transfected cells; host or cells: CHO cells (AC29, SOAT-deficient)
# T2 sequence (O77759 1-526): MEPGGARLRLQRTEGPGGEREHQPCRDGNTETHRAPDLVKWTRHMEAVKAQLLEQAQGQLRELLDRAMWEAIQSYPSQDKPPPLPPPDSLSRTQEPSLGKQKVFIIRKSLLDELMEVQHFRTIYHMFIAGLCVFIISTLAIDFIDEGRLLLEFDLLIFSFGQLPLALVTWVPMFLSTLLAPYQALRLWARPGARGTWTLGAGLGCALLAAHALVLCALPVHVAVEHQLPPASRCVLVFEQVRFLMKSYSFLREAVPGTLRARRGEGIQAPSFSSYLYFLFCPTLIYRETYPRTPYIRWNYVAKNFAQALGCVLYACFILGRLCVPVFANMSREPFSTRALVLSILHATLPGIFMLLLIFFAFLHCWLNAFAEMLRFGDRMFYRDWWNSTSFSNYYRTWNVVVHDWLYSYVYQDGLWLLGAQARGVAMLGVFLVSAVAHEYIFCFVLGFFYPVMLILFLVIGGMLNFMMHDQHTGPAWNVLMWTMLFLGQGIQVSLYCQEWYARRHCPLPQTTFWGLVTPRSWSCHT
# SOAT2 [3] = molecular target: T1, SOAT2; experiment: [14C]CE synthesis in intact hSOAT2-CHO cells (cell-based assay)
# Experimental: CHO cells (AC29 cells, SOAT-deficient cells)[37] expressing the SOAT1 or SOAT2 gene from African Green monkeys and humans were cultured by the method described previously.
# The assay for the synthesis of [^14C]cholesteryl ester (CE) from [^14C]oleic acid in intact SOAT1- or SOAT2-CHO cells was performed according to our established method.
# SOAT1 [4] = molecular target: T3, SOAT1 (Chlorocebus aethiops, UniProt O77760); conditions: cited from earlier work
# T3 construct: expressed in transfected cells; host or cells: CHO cells (AC29, SOAT-deficient)
# T3 sequence (O77760 1-550): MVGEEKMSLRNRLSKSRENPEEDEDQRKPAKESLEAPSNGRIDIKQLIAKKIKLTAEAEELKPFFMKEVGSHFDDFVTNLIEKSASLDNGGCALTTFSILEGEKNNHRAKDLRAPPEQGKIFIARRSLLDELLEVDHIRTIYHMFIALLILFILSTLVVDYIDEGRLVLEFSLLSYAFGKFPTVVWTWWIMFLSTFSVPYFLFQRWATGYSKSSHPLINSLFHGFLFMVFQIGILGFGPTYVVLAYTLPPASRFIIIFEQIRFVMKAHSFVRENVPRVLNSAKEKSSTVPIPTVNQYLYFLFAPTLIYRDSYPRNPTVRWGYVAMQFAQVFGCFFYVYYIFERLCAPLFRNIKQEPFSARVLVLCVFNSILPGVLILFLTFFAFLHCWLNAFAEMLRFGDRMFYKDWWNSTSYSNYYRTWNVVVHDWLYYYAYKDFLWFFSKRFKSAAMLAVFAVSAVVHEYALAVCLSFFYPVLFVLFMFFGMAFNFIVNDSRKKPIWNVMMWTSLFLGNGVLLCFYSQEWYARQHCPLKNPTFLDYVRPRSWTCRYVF
# SOAT1 [5] = molecular target: T3, SOAT1; conditions: enzyme-based assay; African green monkey; cited from earlier work
# SOAT1 [6] = molecular target: T3, SOAT1; experiment: Interaction of Biotin-Beau-immobilized beads with SOAT1 protein (SDS-PAGE, Western blotting); assay type: binding, African green monkey; conditions: microsomes from SOAT1-CHO cells, band at approximately 53 kDa, none from AC29 cells or control beads
# Source text: The direct interaction between beauveriolide and SOAT1 was investigated. […] Therefore, Biotin-Beau may be employed as a useful bio-probe to investigate interactions between SOAT1 and beauveriolide. Biotin-Beau was attached to acrylamide-based streptavidin beads, and microsomes prepared from SOAT1-CHO cells and AC29 cells (control, SOAT-deficient CHO cells) were applied to the beads. After washing the beads, bound proteins were recovered with Laemmli sample buffer, separated by SDS-PAGE, and stained with the SOAT1 antibody. […] However, no protein was observed from control AC29 cells (lane (1)) or control beads (no Biotin-Beau-carrying beads) (lane (3)).
# The microsomal fraction (500 µg protein in 100 µl buffer A) prepared from AC29 (SOAT-deficient CHO cells) or amgSOAT1-CHO cells using the Potter-type homogenizer as described above were mixed with 0.10% (v/v) Triton X-100 on ice for 10 min. Biotin-Beau (10 nmol)[11] was attached to acrylamide-based streptavidin beads (5.0 nmol)[39]. Microsomes (500 µg) prepared from AC29 cells or SOAT1-CHO cells were added to Biotin-Beau-carrying beads and mixed well at 4.0 °C for 1.0 h with a rotator. The beads were collected by centrifugation at 1,000 rpm at 4.0 °C for 5.0 min and washed three times with PBS (300 µl). […] After separation by SDS-PAGE, SOAT1 protein levels was measured as described above.
# SOAT2 [7] = molecular target: T2, SOAT2; conditions: cell-based assay; African green monkey; cited from earlier work
# SOAT1 [8] = molecular target: T4, SOAT1 (Mus musculus, UniProt Q61263); experiment: Immunofluorescence staining of SOAT1 and Biotin-Beau in mouse peritoneal macrophages; assay type: cell-based; conditions: Biotin-Beau 9.8 µM
# T4 construct: endogenous in cells; host or cells: primary mouse peritoneal macrophages (ICR mice)
# T4 sequence (Q61263 1-540): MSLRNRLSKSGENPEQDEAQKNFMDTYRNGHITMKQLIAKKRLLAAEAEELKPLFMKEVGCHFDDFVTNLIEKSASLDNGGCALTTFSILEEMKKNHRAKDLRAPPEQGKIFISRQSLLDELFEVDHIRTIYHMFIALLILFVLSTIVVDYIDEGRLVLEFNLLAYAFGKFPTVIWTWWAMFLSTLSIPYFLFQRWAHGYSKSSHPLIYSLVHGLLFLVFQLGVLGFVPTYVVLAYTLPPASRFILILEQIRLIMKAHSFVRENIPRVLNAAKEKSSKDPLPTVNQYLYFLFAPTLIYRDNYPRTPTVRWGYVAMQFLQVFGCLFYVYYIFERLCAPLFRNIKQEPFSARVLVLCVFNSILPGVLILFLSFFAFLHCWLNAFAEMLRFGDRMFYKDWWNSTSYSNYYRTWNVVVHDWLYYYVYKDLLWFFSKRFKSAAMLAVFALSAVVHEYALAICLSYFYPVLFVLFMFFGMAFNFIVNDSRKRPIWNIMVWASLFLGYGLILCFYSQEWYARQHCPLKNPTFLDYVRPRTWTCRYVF
# Source text: Supplementary Experiment Methods
# Goat anti-rabbit IgG conjugated to fluorescein isothiocyanate (FITC) was purchased from Sigma-Aldrich (St. Louis, MO). Hank’s balanced salt solution was purchased from Nissui Seiyaku (Tokyo, Japan). Streptavidin conjugated to Alexa Fluor 546 was purchased from Thermo Fisher Scientific (Wa l t h a m , M A). […]
# Immunofluorescence staining of SOAT1 and Biotin-Beau in mouse peritoneal […]
# Mouse peritoneal macrophages from ICR mice (Japan SLC, Inc., Japan) were prepared as described previously1. Briefly, primary mouse peritoneal macrophages (2.0 x 10^5 cells) with liposomes in each well of a tissue culture chamber (LAB-TEK 8-chamber) were incubated at 37°C in 5.0% CO 2. After a 14-h incubation, cells were washed three times with PBS, fixed with 3.7% formalin for 10 min, and permeabilized with PBS containing 0.10% Tr i t o n X-100 at room temperature for 20 min. […]
# After a 1-h incubation, cells were stained with the secondary antibody, a goat anti-rabbit IgG conjugated to FITC ([…]) and streptavidin conjugated to Alexa Fluor 546 (1.0 µg/ml) in blocking buffer, for 1.0 h. Cells were washed three times after the incubation and analyzed with confocal laser scanning microscopy (LSM-510 META, Carl Zeiss, Germany). Images were analyzed with a Zeiss LSM Image Browser (Version 3.5.0.376) […]
# SOAT1 and SOAT2 = tested on: SOAT1 and SOAT2; parameters: method as in PMID 14617738, PMID 17390588, PMID 16820149, PMID 16730694, PMID 16626720; conditions: cited from earlier work
structure (smiles),measurement,setting,value
CCCC[C@H](C)[C@@H]1CC(=O)N[C@@H](Cc2ccccc2)C(=O)N[C@@H](C)C(=O)N[C@H]([C@@H](C)CC)C(=O)O1 [Beauveriolide III],effect on atherosclerotic lesions,atherosclerotic lesions,reducing atherosclerotic lesions in the aortae and hearts
CCCC[C@H](C)[C@@H]1CC(=O)N[C@@H](Cc2ccccc2)C(=O)N[C@@H](C)C(=O)N[C@H](CC(C)C)C(=O)O1 [Beauveriolide I],IC50,SOAT2 [1],1100 nM
same,IC50,SOAT2 [2],1.9 µM
same,IC50,SOAT2 [3],> 20 µM
CCCC[C@H](C)[C@@H]1CC(=O)N[C@@H](C(c2ccccc2)c2ccccc2)C(=O)N[C@H](Cn2cc(CNC(=O)CCCCNC(=O)CCCC[C@@H]3SC[C@@H]4NC(=O)N[C@@H]43)nn2)C(=O)N[C@H](C2CCCCC2)C(=O)O1 [Biotin-labeled beauveriolide],effect on CE synthesis,SOAT1 [4]; cell-based assay using SOAT1-/SOAT2-CHO cells,no effect on CE synthesis
same,IC50,"SOAT1 [4]; cell-based assay, African green monkey",> 10 µM
same,IC50,SOAT2 [2],8 µM
same,IC50,SOAT1 [5],0.6 µM
same,SI (type),SOAT1 [5],"SOAT1 (SOAT1-selective type, SI < −1.00)"
same,binding to SOAT1 protein,SOAT1 [6],bound to the SOAT1 protein
same,binding to SOAT1 protein,SOAT1 [6]; listed as Biotin-Beau,directly binds to the SOAT1 protein
same,IC50,SOAT2 [7],> 10 µM
same,cellular localization relative to SOAT1,SOAT1 [8],colocalized with a restricted area of SOAT1 protein distribution
CSc1cc(C)nc(SC)c1NC(=O)CN1CCN(CCSc2nc3ccccc3[nH]2)CC1 [K-604],group of SOAT inhibitor from SI values,SOAT1 and SOAT2,"SOAT1-selective inhibitors (SOAT1-selective inhibitors (SI, <−1.00))"
CC(C)c1cc(C(C)C)c(CC(=O)NS(=O)(=O)Oc2c(C(C)C)cccc2C(C)C)c(C(C)C)c1 [avasimibe],group of SOAT inhibitor from SI values,SOAT1 and SOAT2,dual inhibitors (dual inhibitors (−1.00 ≤ SI ≤+1.00) inhibiting SOAT1 and SOAT2)
CCCCCCCCN1CCc2c(C)c(CC(=O)O)c(C)c(NC(=O)C(C)(C)C)c21 [pactimibe],group of SOAT inhibitor from SI values,SOAT1 and SOAT2,dual inhibitors (dual inhibitors (−1.00 ≤ SI ≤+1.00) inhibiting SOAT1 and SOAT2)
